Test results reported in patent publication US20220395472A1 (Dermavant Sciences GmbH, priority 2021, published 2022).
Values joined by “and” are separate entries in the source; they are usually repeats but may differ in a detail not shown here. Equal entries are not always repeated.

Key:
[1] = tested on: adults with plaque psoriasis; assay: Long-term extension study (PSOARING 3): PASI score, PASI75, PASI90; assay type: in vivo, human
From the text: The PASI scoring system is a widely used, standard, clinical tool for assessing the severity of psoriasis that takes into account the overall severity of erythema (redness), induration (plaque thickness), scale, and the extent of % BSA affected with psoriasis. The 3 clinical signs are each graded on a 5 point scale (0 to 4) and the % BSA affected is scored on a 7 point scale (0 to 6) for each of the 4 specified body regions (head, upper extremities, trunk, and lower extremities). Individual scores are multiplied by a weighted factor for each body region; the sum of these scores gives the overall PASI score. Higher scores indicate more severe disease. PASI is a static assessment made without reference to previous scores. Details on PASI calculation can be found in Appendix 2 of the protocol.

[2] = tested on: adults with plaque psoriasis; assay: Long-term extension study (PSOARING 3): adverse events; assay type: in vivo, human
From the text: Endpoints: Incidence, frequency, and nature of AEs, adverse events of special interest (AESIs), and serious adverse events (SAEs), Change over time in clinical laboratory tests and frequency of clinically significant abnormal test results, Change over time in vital signs and frequency of clinically significant abnormal results, Local Tolerability Scale (LTS) scores by severity summarized by visit.
Safety assessments included AEs, AESIs, SAEs, local (application site) tolerability, clinical laboratory tests, vital signs, physical examinations, and Investigator assessed LTS. Efficacy assessments included a 5 point static PGA (0 [clear], 1 [almost clear], 2 [mild], 3 [moderate], 4 [severe]), % BSA affected, the PASI, and subject reported DLQI.

[3] = In vitro studies in human skin microsomes: metabolic turnover; assay type: in vitro ADME
From the text: The reason for the decrease in plasma concentrations over time is unknown. Without wishing to be bound by theory, as the skin heals, there may be less penetration of the drug through the stratum corneum and into the systemic circulation since the barrier is restored.

[4] = tested on: mild to severe plaque psoriasis; assay: Treat-to-target pooled analysis of the PSOARING trials; assay type: in vivo, human
From the text: In addition to a % BSA of ≤1.0% and PASI75, pooled analyses explored more aggressive targets, including the proportion of patients with % BSA of ≤0.5%, or an absolute PASI score of ≤1, ≤2 or ≤3. […] Safety analyses are based on all patients who received tapinarof in the PSOARING trials.

[5] = final analysis, Tapinarof→Tapinarof
[6] = final analysis, Vehicle→Tapinarof

For `CC(C)c1c(O)cc(/C=C/c2ccccc2)cc1O` [Tapinarof, 3,5-Dihydroxy-4-isopropyl-trans-stilbene], which “PASI75 Responder” value ([1]; Week 40, Observed Cases, Vehicle (Pivotal) group, listed as tapinarof) is on record?
Its value is 51.3%.

And the “PASI75 Non-Responder” value ([1]; Week 40 LOCF, Overall)?
The value was 555/743 (74.7) %.

And the “PASI75 Responder” value ([1]; Week 40 LOCF, Overall)?
The value was 188/743 (25.3) %.

And the “Subjects with reduction of ≥90% from Baseline in PASI (PASI90)” value ([1]; Week 40 LOCF, Overall)?
The value was 14.4%.

And the “mean (SD) PASI score” value ([1]; Week 40 LOCF, Overall)?
The value was 2.97 (3.622).

And the “Subjects with reduction of ≥90% from Baseline in PASI (PASI90)” value ([1]; Week 40 OC, Overall)?
The value was 17.8%.

What about the “mean (SD) PASI score” value ([1]; Week 40 OC, Overall) of the same compound?
The value was 2.36 (2.781).

And the “TEAE incidence: contact dermatitis” value ([2]; final analysis)?
The value was 5.5%.

And the “TEAE incidence: folliculitis” value ([2]; final analysis)?
Its value is 22.7%.

And the “TEAE incidence: upper respiratory tract infection” value ([2]; final analysis)?
The value was 4.7%.

And the “discontinuation rate due to contact dermatitis” value ([2]; final analysis)?
The value was 1.4%.

What about the “discontinuation rate due to folliculitis” value ([2]; final analysis) of the same compound?
The value was 1.2%.

And the “Study discontinuation due to AESI: Dermatitis contact” value ([2]; final analysis, Overall)?
Its value is 11 (1.4) n (%).

What about the “Study discontinuation due to AESI: Folliculitis” value ([2]; final analysis, Overall) of the same compound?
Its value is 9 (1.2) n (%).

What about the “Study discontinuation due to AESI: Headache” value ([2]; final analysis, Overall) of the same compound?
Its value is 0 n (%).

What about the “Study discontinuation due to TEAEs” value ([2]; final analysis, Overall) of the same compound?
Its value is 41 (5.4) n (%).

And the “Treatment-emergent AESI: Dermatitis contact” value ([2]; final analysis, Overall)?
The value was 45 (5.9) n (%).

And the “Treatment-emergent AESI: Folliculitis” value ([2]; final analysis, Overall)?
The value was 183 (24.0) n (%).

What about the “Treatment-emergent AESI: Headache” value ([2]; final analysis, Overall) of the same compound?
The value was 15 (2.0) n (%).

And the “Study discontinuation due to AESI: Dermatitis contact” value [2, 5]?
The value was 7 (1.4) n (%).

And the “Study discontinuation due to AESI: Folliculitis” value [2, 5]?
Its value is 6 (1.2) n (%).

And the “Study discontinuation due to AESI: Headache” value [2, 5]?
The value was 0 n (%).

And the “Study discontinuation due to TEAEs” value [2, 5]?
The value was 26 (5.1) n (%).

What about the “Treatment-emergent AESI: Dermatitis contact” value [2, 5] of the same compound?
Its value is 24 (4.7) n (%).

What about the “Treatment-emergent AESI: Folliculitis” value [2, 5] of the same compound?
The value was 124 (24.4) n (%).

What about the “Treatment-emergent AESI: Headache” value [2, 5] of the same compound?
The value was 10 (2.0) n (%).

What about the “Study discontinuation due to AESI: Dermatitis contact” value [2, 6] of the same compound?
The value was 4 (1.6) n (%).

What about the “Study discontinuation due to AESI: Folliculitis” value [2, 6] of the same compound?
The value was 3 (1.2) n (%).

What about the “Study discontinuation due to AESI: Headache” value [2, 6] of the same compound?
Its value is 0 n (%).

What about the “Study discontinuation due to TEAEs” value [2, 6] of the same compound?
The value was 15 (5.9) n (%).

What about the “Treatment-emergent AESI: Dermatitis contact” value [2, 6] of the same compound?
The value was 21 (8.2) n (%).

What about the “Treatment-emergent AESI: Folliculitis” value [2, 6] of the same compound?
The value was 59 (23.1) n (%).

What about the “Treatment-emergent AESI: Headache” value [2, 6] of the same compound?
Its value is 5 (2.0) n (%).

What about the “study discontinuation rate due to contact dermatitis” value ([2]; interim) of the same compound?
Its value is 1.4%.

What about the “study discontinuation rate due to folliculitis” value ([2]; interim) of the same compound?
The value was 1.2%.

What about the “Premature discontinuation due to AEs” value ([2]; interim, Overall) of the same compound?
Its value is 5.8%.

And the “Premature discontinuation due to AEs” value ([2]; interim, Tapinarof (Pivotal) group)?
Its value is 5.7%.

And the “Premature discontinuation due to AEs” value ([2]; interim, Vehicle (Pivotal) group)?
Its value is 5.9%.

What about the metabolic turnover [3] of the same compound?
The metabolic turnover was “no metabolic turnover”.

And the “KM estimated median time to target % BSA≤0.5%” value ([4]; 915 patients, baseline PGA≥2)?
Its value is 199 days.

What about the “mean time to target PASI≤3” value ([4]; 915 patients, baseline PGA≥2) of the same compound?
The value was 58 days.

What about the “median time to target % BSA≤1.0%” value ([4]; 915 patients, baseline PGA≥2) of the same compound?
Its value is 120 days.

And the “median time to target PASI≤1” value ([4]; 915 patients, baseline PGA≥2)?
The value was 185 days.

And the “median time to target PASI≤2” value ([4]; 915 patients, baseline PGA≥2)?
Its value is 87 days.

What about the “patients who achieved % BSA≤0.5%” value ([4]; 915 patients, baseline PGA≥2) of the same compound?
The value was 49.7%.

And the “patients who achieved % BSA≤1.0%” value ([4]; 915 patients, baseline PGA≥2)?
The value was 61.3% and 61%.

And the “patients who achieved PASI≤1” value ([4]; 915 patients, baseline PGA≥2)?
The value was 50.3%.

What about the “patients who achieved PASI≤2” value ([4]; 915 patients, baseline PGA≥2) of the same compound?
The value was 66.9% and 67%.

And the “patients who achieved PASI≤3” value ([4]; 915 patients, baseline PGA≥2)?
Its value is 75.0%.

What about the “patients who achieved ≤1% BSA affected” value ([4]; within ˜3 months) of the same compound?
Its value is 40%.
